Test results published in patent US5821046A, “RNA oligonucleotides that bind HIV tat protein” (RiboTargets Holdings PLC, priority 1990, dated 1998).

Assays:
HIV-1 tat protein [1] = assay: direct filter binding assay of tat to TAR RNA (saturation binding, Scatchard analysis); conditions: direct filter binding; HIV-1 TAR from saturation binding/Scatchard plot, mutants estimated from half-maximal binding; read-out: Kd (dissociation constant of tat binding)
Method: The results shown graphically in FIG. 4 are from experiments in which binding reactions (500 ul) contained 40 nMolar^32 P uniformly radiolabelled TAR RNA at a specific activity of 100,000 Ci/mole; 0.5 ug calf thymus DNA; 0.2 ug yeast TRNA; 40 units RNAsin (Promega); 50mm Tris-HCl pH 7.9 and 20 mM KCl. Reaction mixtures were set up on ice and increasing amounts of HIV-1 tat protein were added and the reaction mixtures were filtered through prewashed nitrocellulose filters (Millipore 0.45 uM pore size). The filters were dried and counted by liquid scintillation counting. The fraction of radiolabeled RNA bound was plotted against HIV-1 tat concentration.
Binding was measured by a filter-binding assay as described below under "Method", using monomeric tat protein prepared by CNBr cleavage of a human growth hormone-tat fusion protein expressed in E. coli. Reactions for saturation binding contained labeled TAR RNA [SEQ ID NO: 1] or antisense TAR RNA [SEQ ID NO: 6] at 10 nm and between 0 to 300 nM purified tat protein. Antisense TAR RNA was used as a control, since antisense TAR is unable to form stable complexes with tat in gel-retardation assays (Dingwall et al., 1989).
The stoichiometry of the tat/TAR interaction was determined by varying the TAR RNA concentrations over a wide range, while keeping the tat protein concentration constant near the Kd. For this Scatchard analysis, the tat protein concentration was held constant at 40 nM and the RNA concentration was varied between 7nM and 320 nM. The total amount of labeled RNA was kept constant in the binding reactions, but the specific activity of the RNA was varied. […]
Tat protein was prepared either from beta-galactosidase-tat fusion proteins (6) or from human growth-hormone-tat fusion proteins (85) using an improved method. In brief, inclusion body pellets containing the fusion protein were solubilized in 7M GdHCl, 50 mM Tris-HCl pH8.0, 2 mM EDTA, 2mM DTT and the fusion protein was purified to near homogeneity by ion-exchange chromatography on Q-Sepharose and S-Sepharose (Pharmacia) in buffers containing […], 50 mM Tris-HCl pH8.0, 2mM EDTA, 2mM DTT. The cysteine residues were protected by disulphide-exchange with 20 mM 2-hydroxyethyldisulphide (86), and the protein was cleaved by cyanogen bromide (6). The basic tat protein was then separated from the acidic human growth hormone peptides by ion-exchange chromatography on Q-Sepharose and S-Sepharose in 6M Urea. The protecting groups were then removed from the protein by addition of 10 mM DTT and the protein refolded by stepwise dialysis against 6 m Urea, 5M Urea,3M Urea, 1M Urea and 0M Urea in a buffer containing 50 mM Tris-HCl pH8.0, 100 uM DTT, 10 uM ZnCl2 Tat protein refolded in this manner elutes as a monomer from Superose 12 columns (Pharmacia) and migrates as a single band on polyacrylamide gels. Protein prepared by both methods behaved comparably in binding assays.
A wide variety of parameters affecting the binding of tat protein to TAR RNA were studied and binding conditions were optimized. Binding of tat to TAR has a distinct pH optimum at pH 8.0, but good binding is observed between pH 7.5 and pH 8.5. Tat/TAR complexes are very sensitive to ionic strength. […] Addition of Zn^+2, Cd^+2, Ca^+2, Mg,^+2, Fe^+2 or Fe^+3 ions to the reaction mixtures […]. However, the binding reaction is sensitive to EDTA at greater than 0.1 mM EDTA. Complex formation is also somewhat temperature sensitive. Optimal binding is observed at 0°C. Between 15° C. and 30° C. there is a 30% reduction in complex formation. […]

HIV-1 tat protein [2] = assay: competition filter binding assay, mutant TAR transcripts against labelled HIV-1 TAR RNA (FIG. 7, Table 1); conditions: 20 nM TAR RNA, 40 nM tat protein; for IC50: read-out: D1/2 (concentration of competitor RNA that reduces binding of HIV-1 tat to HIV-1 TAR RNA to 50%)
Method: Binding reactions (500 ul) were set up on ice and contained 80 pM ^32 P-labeled TAR RNA (17,600 dpm, 200 uCi/n mol) and unlabeled TAR RNA to give a final concentration of 20 nM, 0.5 ug calf thymus DNA, 0.2 ug yeast tRNA, 40 units RNAsin (Promega), 50 mM Tris HCl and 20 mM KCl. After addition of competitor RNA, binding was initiated by addition of HIV-1 tat protein to a final concentration of 400 ng/ml (40 nM). The binding reaction mixtures were then filtered under reduced pressure through pre-washed nitrocellulose filters (Millipore 0.45 uM pore size) and filters were dried and counted by liquid scintillation counting.
The fraction of^32 P-labeled TAR RNA bound was plotted against the final concentration of competitor RNA. In these experiments reactions included 20 nM TAR and 40 nM tat protein and increasing amounts of unlabeled competitor RNA from 40 nm to 6 uM. […] In theory, 40 nM tat will bind 50% of the input TAR RNA (D1/2) when the total TAR RNA concentration is 56 nM.
For competition experiments, binding reactions (500 ul) were set up on ice and contained 80 pM ^32 P-labeled TAR RNA (17,600 dpm, 200 uCi/n mol) and unlabeled TAR RNA to give a final concentration of 20 nM, 0.5 ug calf thymus DNA, 0.2 ug yeast TRNA, 40 units RNAsin (Promega), 50 mM Tris-HCl pH 7.9 and 20 mM KCl. After addition of 0 to 6 uM competitor RNA, binding was initiated by addition of HIV- 1 tat protein to a final concentration of 400 ng/mi (40 nM). The binding reaction mixtures were then filtered under reduced pressure through pre-washed nitrocellulose filters (Millipore 0.45 u pore size) and filters were dried and counted by liquid scintillation counting.
KRel is the ratio of the D1/2 values for HIV-1 TAR and competitor RNA.

[3] = system: tat-dependent promoter activity of viral LTR carrying the TAR sequence; assay: trans-activation CAT assay, HeLa cells cotransfected with LTR-CAT test plasmid and tat expression plasmid; assay type: cell-based; conditions: HeLa cells cotransfected with tat plasmid
Excerpt: If tat binding to TAR is necessary for trans-activation, then viral LTRs carrying TAR sequences with low affinities for tat should always have reduced tat-dependent promoter activity in vivo. Site-directed mutagenesis experiments on TAR have shown that trans-activation requires sequences in both the U-rich bulge (10, 11) and the loop sequence (12, 27, 28). These observations have now been extended, using TAR mutations with known affinities for tat in transfection experiments, the results of which are shown in FIG. 8. The experiments used either HeLa cells (FIG. 8a-d) or a constitutive producer of tat, HeLa/C63/tat cells (FIG. 8e-f).
The TAR sequences depicted in FIG. 3 [SEQ ID NO: 1-11] were introduced into a test plasmid, pD5-3-3, which carries a LTR and approximately 300 bases of 5' flanking sequences derived from the infectious proviral clone NL4 (29). The bacterial chloramphenicol acetyltransferase (CAT) gene and SV40 intron and terminator sequence from pSV2-CAT (30) was inserted downstream of TAR by cloning into the HindIII site at +77. Trans-activation was measured either by cotransfection of HeLa cells with the test plasmids and the tat expression plasmid pC63-4-1 (6) (panels a-d in […]), or by transfection of the test plasmids alone into HeLa/C63/tat (clone 9) cells (panels e-h). […]

HIV-1 tat protein [4] = assay type: binding; conditions: 32P-labeled RNA transcript, 0 to 600 ng tat
Method: i) Gel retardation assays (FIG. 6) Method RNA transcripts were prepared by transcription with either T3 or T7 RNA polymerases of TAR regions residues +1 to +57, cloned between the HindIII and EcoRI sites of the Bluescribe M13+expression vector (Stratagene). RNA transcripts corresponding to HIV-1 TAR [SEQ ID NO: 1], SSA [SEQ ID NO: 3], SAA and SAS [SEQ ID NO: 5] were synthesized from clones linearized with EcoRI and transcribed with T3 RNA polymerase. RNA transcripts corresponding to the antisense HIV-1 TAR […], AAS , ASS [SEQ ID NO: 4], and ASA (not shown) sequences were prepared from the same plasmids linearized with HindIII and transcribed using T7 RNA polymerase. All other RNA molecules were synthesized using T3 RNA polymerase following EcoRI cleavage of the plasmid vector. The RNA products each carry 13 nucleotides of vector sequence at their 5' end and four nucleotides at their 3' ends. […] Transcription mixtures contained 1 ug linearized plasmid, 40 mM Tris-HCl pH 8.0, 10 mM MgCl 2, 2 mM Spermidine-HCl, 50 mM NaCl, 100 uM each ribonucleotide triphosphate, 40 uCi (alpha-^32 P) UTP (410 Ci/m mol) and 10 units of RNA polymerase in a final volume of 30 ul and were incubated at 37° C. for 30 minutes. After phenol extraction and precipitation from ethanol the RNA was purified from a 9% polyacrylamide denaturing gel. The specific activity of the RNA product was determined and appropriate amounts were used in binding assays. Binding reaction mixtures (1 5ul) contained 1 ng of uniformly labeled RNA probe, 0.5 ug calf thymus DNA, 0.2 ug yeast TRNA, 40 units RNAsin (Promega), 50 mM Tris-HCl and 20 mM KCl and 0 to 600 ng tat protein, prepared from E. coli beta-galactosidase-tat fusion proteins, as described previously (6). After incubation at either 30° C. or 4° C. for 10-20 minutes, the reaction mixtures were applied to a 6% non-denaturing polyacrylamide gel (Acrylamide: Bis, 40:0.5) in 3.3 mM sodium acetate, 6.7 mM Tris (adjusted to pH 7.9 with HCl). The gel buffer was recirculated during electrophoresis at 35 mA for approximately 2 hours at room temperature. Gels were dried and exposed to X-ray film at -80° C. using intensifying screens.

HIV-1 Tat [5] = biological target: T1, HIV-1 Tat (Human immunodeficiency virus 1, UniProt P04608 P04608:1-86); assay: competition; D1/2; unmodified 29-mer 60 nM; 29-mer probe; conditions: hairpin with U-rich bulge
HIV-1 Tat [6] = biological target: T1, HIV-1 Tat; assay: filter; Scatchard 11.8 nM; 50 mM Tris-HCl, 20 mM KCl, on ice, calf thymus DNA and yeast tRNA present; conditions: label: 32P; stem-loop with 3-nt U-rich bulge
HIV-1 Tat [7] = biological target: T1, HIV-1 Tat; assay: competition; D1/2; wild type 90 nM
HIV-1 Tat [8] = biological target: T1, HIV-1 Tat; assay: competition; D1/2; unmodified 18+15 duplex 65 nM; conditions: duplex with bulge

## G28 to C28 ; C37 to G37: pair of TAR point mutations expected to have a normal TAR stem/loop structure (GGGUCUCUCUGGUUAGACCAGAUUUGACCCUGGGAGGUCUCUGGCUAACUAGGGAACCC; chemistry not given here)
HIV-1 tat protein [1]
  Kd: 24 nM
HIV-1 tat protein [2]
  KRel (ratio of D1/2 values for HIV-1 TAR and competitor RNA): 0.84
  IC50: 76 nM
[3]
  trans-activation phenotype: restored to wild-type levels

## Antisense: anti-sense sequence to HIV-1 BRU TAR (antisense GGGUUCCCUAGUUAGCCAGAGAGCUCCCAGGCUCAAAUCUGGUCUAACCAGAGAGACCC; chemistry not given here) [reference compound]
HIV-1 tat protein [1]
  Kd: > 140 nM
HIV-1 tat protein [4]
  complex formation with tat in gel retardation assay: No complexes were formed

## HIV-2 TAR: first stem-loop structure of HIV-2 ROD TAR RNA, bulge of two uridine residues (CUGCGGAGAGGCUGGCAGAUUGAGCCCUGGGAGGUUCUCUCCAGCACUAGCAG; RNA, backbone not given here) [reference compound]
HIV-1 tat protein [1]
  Kd: 30 nM
HIV-1 tat protein [2]
  KRel (ratio of D1/2 values for HIV-1 TAR and competitor RNA): 0.40
  IC50: 160 nM
HIV-1 tat protein [4]
  complex formation with tat in gel retardation assay: discrete complex formation

## GCCAGAUUUGAGCCUGGGAGCUCUCUGGC (ssRNA, 2'-OMe uridine at U23 (nt 7) [7 (2'-OMe uridine, U23)]) [29-mer 2'-OMeU-23]
HIV-1 Tat [5]
  IC50: 50 nM

B1: HIV-1 TAR RNA 59-mer (UUU bulge) (ssRNA)
RNA: GGGUCUCUCUGGUUAGACCAGAUUUGAGCCUGGGAGCUCUCUGGCUAACUAGGGAACCC
HIV-1 Tat [6]
  Kd: 12 nM

B2: TAR G26 to C26; C39 to G39 (ssRNA)
RNA: GGGUCUCUCUGGUUAGACCAGAUUUCAGCCUGGGAGCUGUCUGGCUAACUAGGGAACCC
HIV-1 Tat [7]
  IC50: 2370 nM

B3: TAR A22 to U22; U40 to A40 (ssRNA)
RNA: GGGUCUCUCUGGUUAGACCAGUUUUGAGCCUGGGAGCUCACUGGCUAACUAGGGAACCC
HIV-1 Tat [7]
  IC50: 220 nM

B4: TAR C39 to G39 (ssRNA)
RNA: GGGUCUCUCUGGUUAGACCAGAUUUGAGCCUGGGAGCUGUCUGGCUAACUAGGGAACCC
HIV-1 Tat [7]
  IC50: 1500 nM

B5: TAR G26 to A26; C39 to U39 (ssRNA)
RNA: GGGUCUCUCUGGUUAGACCAGAUUUAAGCCUGGGAGCUUUCUGGCUAACUAGGGAACCC
HIV-1 Tat [7]
  IC50: 631 nM

## GCCAGAUUUGAGCCUGGGAGCUCUCUGGC (ssRNA, 2'-deoxyuridine at U23 (nt 7) [7 (2'-deoxyuridine, U23)]) [29-mer dU-23]
HIV-1 Tat [5]
  IC50: 55 nM

B6: 18+15 duplex 4-thioT-23 (dsRNA)
RNA 1: AGCCAGATUUGAGCAGCU
RNA 2: AGCUGCUCUCUGGCU
modifications: 4-thio-2'-deoxythymidine at U23 (nt 8) [8 (strand 1, 4-thio-2'-deoxythymidine)]
HIV-1 Tat [8]
  IC50: 32 nM

B7: 18+15 duplex 4-thioT-24 (dsRNA)
RNA 1: AGCCAGAUTUGAGCAGCU
RNA 2: AGCUGCUCUCUGGCU
modifications: 4-thio-2'-deoxythymidine at U24 (nt 9) [9 (strand 1, 4-thio-2'-deoxythymidine)]
HIV-1 Tat [8]
  IC50: 25 nM
